The source of these data is patent US8642622B2, “Piperidinyl compound as a modulator of chemokine receptor activity” (Bristol-Myers Squibb Company, priority 2010, dated 2014).

Series [1] deals with T1, human cardiac sodium channel, SCNSA (Homo sapiens, UniProt Q14524).
T1 construct: expressed in transfected cells; host or cells: HEK-293
Nature of the series: Sodium channel whole-cell patch-clamp assay. It counts as cell-based. To be noted: HEK293, HEK-293, protein-free buffer, read-out: Na channel, % inh. The protocol: Whole-cell patch-clamp was used to directly measure inward sodium currents in HEK-293 cells expressing the human cardiac sodium channel, SCNSA. After reach steady-state effect in the presence of drug, rate-dependence was assessed by stimulation at frequencies of 1 Hz and 4 Hz. Experiments were carried out using an aqueous buffer at pH 7.4 and at room temperature. There is no protein in the buffer and drug concentrations reported are nominal free drug levels. Test article was evaluated up to 10 μM (protein-free buffer). […] Data is reported as percent inhibition at a fixed concentration.

The target of series [2] is T2, human cardiac L-type Ca channel (α1C) and its β subunit (Homo sapiens, UniProt Q13936).
T2 construct: expressed in transfected cells
Nature of the series: L-type calcium channel whole-cell patch-clamp assay. Format: cell-based. The note with it: @ 30 μM, HEK-293, protein-free buffer. As to the method:
In addition to the potential for interaction with the L-type calcium channel, whole-cell patch-clamp was used to directly measure inward calcium currents in HEK-293 cells stably expressing the cloned human cardiac L-type Ca channel (α1C) and its β subunit. Effects of compounds were calculated by measuring inhibition of peak current. Experiments were carried out using an aqueous buffer at pH 7.4 and at room temperature. There is no protein in the buffer and drug concentrations reported are nominal free drug levels. Data is reported as percent inhibition at a fixed concentration.
On the technique in general: Patch clamp records ionic current or voltage across a cell membrane.

A short description of series [3]: Human liver microsomal metabolism, Assay Conditions B. It counts as in vitro ADME. As to the method: Test compound is received as 20 mM in DMSO. Compound is diluted to create a 300 μM acetonitrile (ACN) solution containing 1.5% DMSO, which is then used as a 100× stock for incubation with microsomes. Each compound is tested in duplicate separately in each of three species in the Metabolic Stability-Human, Rat, Mouse assay suite or individual species in the Metabolic Stability-Dog or Metabolic Stability-Monkey suites. Compound, NADPH and liver microsome solutions are combined for incubation in three steps: • 1. 450 μL of liver microsome suspension, protein concentration of 1 mg/mL in 100 mM NaPi, pH 7.4, 6.6 mM MgCl2 buffer, are pre-warmed at 37° C. • 2. […] of 300 μM compound (98.5% CAN, 1.5% DMSO) is added to the same tube. • 3. The reaction is initiated by the addition of 50 μL of pre-warmed 5 mM NADPH solution in 100 mM NaPi, pH 7.4.
Reaction components are mixed well and 150 μL removed to quench/stop solution immediately for the zero-minute time point. Reactions are incubated at 37° C. for 10 minutes and then an additional 150 μL removed from incubation. Aliquots removed are combined with 300 μL ACN which contains 100 μM DMN as a UV standard for detection.
Quenched mixtures are centrifuged at 1500 rpm (˜500×g) in an Allegra X-12 centrifuge, SX4750 rotor (Beckman Coulter Inc., Fullerton, Calif.) for fifteen minutes to pellet denatured microsomes. A volume of 110 μl of supernatant extract, containing the mixture of parent compound and its metabolites, is then transferred to a separate 96-well plate for UV-LC/MS-MS analysis to determine the percent of parent compound that is remaining in the mixture.

Another series in a line: Protein binding, rabbit. It counts as in vitro ADME.
Series [4] can be described thus: Electrocardiography in anesthetized rabbits (rabbit in vivo EP effect). As to the method: A dose-response study of test compound was conducted in anesthetized rabbits to assess the cardiac electrophysiologic profile established in the cellular ion channel assays.
Experiments were performed in propofol-fentanyl anesthetized closed-chest male rabbits. A body surface electrocardiogram (ECG) and an intra-cardiac His-bundle electrogram were continuously monitored and recorded during the studies, using a PoNeMah system and a Prucka electrophysiological recording system, respectively. Test compound was prepared on the day of study in a vehicle of PEG400:ethanol:water (1:1:1) at a dosing concentration of 30 mg/mL. Test compound (n=3) or vehicle (n=3) was given intravenously over 5 minutes via an infusion pump at incremental doses of 3, 10 and 30 mg/kg. The interval between doses was 10 minutes, allowing for a 5-minute test agent infusion and a 5-minute rest period. Blood was sampled at baseline (pre-drug infusion) and immediately at the end of each infusion. For the 30 mg/kg dose, additional blood samples were taken at 10, 20 and 30 minutes after the end of infusion.
PR interval, QRS duration and QT interval were averaged from a 1 minute ECG recording period at time of blood sampling. QT interval was corrected for heart rate effects using both Fridericia (QTcf) and Van der Water (QTcv) formulae. AH and HV intervals, representing A-V node conduction and His-Purkinje conduction, respectively, were assessed by manual measurements from the His-bundle electrogram. Data were expressed as percent change from pre-drug baseline (mean±SEM) for PR, QRS, AH and HV intervals as well as delta change from the pre-drug infusion baseline (mean±SEM) for QTc intervals. Changes of 10% in PR, QRS, and AH intervals, and 20% in HV interval, as well as >10 ms in QTc interval are considered significant based on experience with the model.

Where only a bound is given, the exact number is not on record here.

T1 sequence (Q14524 whole entry): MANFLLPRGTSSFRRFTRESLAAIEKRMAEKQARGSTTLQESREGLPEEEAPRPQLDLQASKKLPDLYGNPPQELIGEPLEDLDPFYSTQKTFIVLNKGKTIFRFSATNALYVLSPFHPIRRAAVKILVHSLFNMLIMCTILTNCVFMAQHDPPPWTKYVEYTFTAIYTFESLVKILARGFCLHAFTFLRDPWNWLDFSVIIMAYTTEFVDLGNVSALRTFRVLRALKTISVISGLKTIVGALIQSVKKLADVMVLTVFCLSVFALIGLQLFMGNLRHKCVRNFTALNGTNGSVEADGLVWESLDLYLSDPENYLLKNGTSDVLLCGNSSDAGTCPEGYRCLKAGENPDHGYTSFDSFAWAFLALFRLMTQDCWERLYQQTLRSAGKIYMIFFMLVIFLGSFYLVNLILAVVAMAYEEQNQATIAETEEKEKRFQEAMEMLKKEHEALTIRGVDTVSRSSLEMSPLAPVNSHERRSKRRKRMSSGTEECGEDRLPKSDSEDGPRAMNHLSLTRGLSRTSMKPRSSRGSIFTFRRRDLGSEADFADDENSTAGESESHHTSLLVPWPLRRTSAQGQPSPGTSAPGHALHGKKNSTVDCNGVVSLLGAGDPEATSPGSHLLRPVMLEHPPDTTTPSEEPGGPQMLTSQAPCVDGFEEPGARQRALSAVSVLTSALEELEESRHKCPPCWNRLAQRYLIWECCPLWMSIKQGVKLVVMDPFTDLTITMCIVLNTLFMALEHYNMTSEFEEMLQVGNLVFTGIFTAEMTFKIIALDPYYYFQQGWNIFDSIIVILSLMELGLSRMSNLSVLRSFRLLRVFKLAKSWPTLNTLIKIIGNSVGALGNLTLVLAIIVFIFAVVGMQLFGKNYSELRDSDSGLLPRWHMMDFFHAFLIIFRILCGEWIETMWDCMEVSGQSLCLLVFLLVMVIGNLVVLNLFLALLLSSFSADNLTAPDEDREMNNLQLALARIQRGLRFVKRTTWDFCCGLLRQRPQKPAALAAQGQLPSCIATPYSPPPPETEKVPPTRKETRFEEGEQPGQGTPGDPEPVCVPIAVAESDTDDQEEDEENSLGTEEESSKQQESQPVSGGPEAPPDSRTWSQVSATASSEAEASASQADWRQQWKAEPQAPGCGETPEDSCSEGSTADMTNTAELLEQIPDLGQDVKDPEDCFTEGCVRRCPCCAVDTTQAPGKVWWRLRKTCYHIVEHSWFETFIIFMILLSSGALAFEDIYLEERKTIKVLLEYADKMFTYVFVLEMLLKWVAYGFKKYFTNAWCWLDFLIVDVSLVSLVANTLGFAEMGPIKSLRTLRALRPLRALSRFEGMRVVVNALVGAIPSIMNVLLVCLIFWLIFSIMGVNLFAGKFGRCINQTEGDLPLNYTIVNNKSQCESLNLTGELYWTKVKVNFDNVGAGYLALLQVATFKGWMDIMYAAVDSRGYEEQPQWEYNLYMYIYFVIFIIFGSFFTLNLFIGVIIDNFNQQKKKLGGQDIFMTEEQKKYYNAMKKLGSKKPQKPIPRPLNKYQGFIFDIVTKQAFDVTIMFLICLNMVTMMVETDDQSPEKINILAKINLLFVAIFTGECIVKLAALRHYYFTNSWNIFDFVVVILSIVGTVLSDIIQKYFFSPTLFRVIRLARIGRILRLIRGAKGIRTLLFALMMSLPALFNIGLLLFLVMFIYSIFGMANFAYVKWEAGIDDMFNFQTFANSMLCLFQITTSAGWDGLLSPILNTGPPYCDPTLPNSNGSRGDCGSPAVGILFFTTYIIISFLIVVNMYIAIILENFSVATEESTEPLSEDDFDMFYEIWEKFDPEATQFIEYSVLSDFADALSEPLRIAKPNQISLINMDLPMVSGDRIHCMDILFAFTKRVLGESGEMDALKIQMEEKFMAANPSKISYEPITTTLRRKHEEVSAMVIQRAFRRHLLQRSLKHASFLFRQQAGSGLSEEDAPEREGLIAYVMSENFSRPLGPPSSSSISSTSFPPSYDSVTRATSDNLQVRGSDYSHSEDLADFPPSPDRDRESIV
T2 sequence (Q13936 whole entry): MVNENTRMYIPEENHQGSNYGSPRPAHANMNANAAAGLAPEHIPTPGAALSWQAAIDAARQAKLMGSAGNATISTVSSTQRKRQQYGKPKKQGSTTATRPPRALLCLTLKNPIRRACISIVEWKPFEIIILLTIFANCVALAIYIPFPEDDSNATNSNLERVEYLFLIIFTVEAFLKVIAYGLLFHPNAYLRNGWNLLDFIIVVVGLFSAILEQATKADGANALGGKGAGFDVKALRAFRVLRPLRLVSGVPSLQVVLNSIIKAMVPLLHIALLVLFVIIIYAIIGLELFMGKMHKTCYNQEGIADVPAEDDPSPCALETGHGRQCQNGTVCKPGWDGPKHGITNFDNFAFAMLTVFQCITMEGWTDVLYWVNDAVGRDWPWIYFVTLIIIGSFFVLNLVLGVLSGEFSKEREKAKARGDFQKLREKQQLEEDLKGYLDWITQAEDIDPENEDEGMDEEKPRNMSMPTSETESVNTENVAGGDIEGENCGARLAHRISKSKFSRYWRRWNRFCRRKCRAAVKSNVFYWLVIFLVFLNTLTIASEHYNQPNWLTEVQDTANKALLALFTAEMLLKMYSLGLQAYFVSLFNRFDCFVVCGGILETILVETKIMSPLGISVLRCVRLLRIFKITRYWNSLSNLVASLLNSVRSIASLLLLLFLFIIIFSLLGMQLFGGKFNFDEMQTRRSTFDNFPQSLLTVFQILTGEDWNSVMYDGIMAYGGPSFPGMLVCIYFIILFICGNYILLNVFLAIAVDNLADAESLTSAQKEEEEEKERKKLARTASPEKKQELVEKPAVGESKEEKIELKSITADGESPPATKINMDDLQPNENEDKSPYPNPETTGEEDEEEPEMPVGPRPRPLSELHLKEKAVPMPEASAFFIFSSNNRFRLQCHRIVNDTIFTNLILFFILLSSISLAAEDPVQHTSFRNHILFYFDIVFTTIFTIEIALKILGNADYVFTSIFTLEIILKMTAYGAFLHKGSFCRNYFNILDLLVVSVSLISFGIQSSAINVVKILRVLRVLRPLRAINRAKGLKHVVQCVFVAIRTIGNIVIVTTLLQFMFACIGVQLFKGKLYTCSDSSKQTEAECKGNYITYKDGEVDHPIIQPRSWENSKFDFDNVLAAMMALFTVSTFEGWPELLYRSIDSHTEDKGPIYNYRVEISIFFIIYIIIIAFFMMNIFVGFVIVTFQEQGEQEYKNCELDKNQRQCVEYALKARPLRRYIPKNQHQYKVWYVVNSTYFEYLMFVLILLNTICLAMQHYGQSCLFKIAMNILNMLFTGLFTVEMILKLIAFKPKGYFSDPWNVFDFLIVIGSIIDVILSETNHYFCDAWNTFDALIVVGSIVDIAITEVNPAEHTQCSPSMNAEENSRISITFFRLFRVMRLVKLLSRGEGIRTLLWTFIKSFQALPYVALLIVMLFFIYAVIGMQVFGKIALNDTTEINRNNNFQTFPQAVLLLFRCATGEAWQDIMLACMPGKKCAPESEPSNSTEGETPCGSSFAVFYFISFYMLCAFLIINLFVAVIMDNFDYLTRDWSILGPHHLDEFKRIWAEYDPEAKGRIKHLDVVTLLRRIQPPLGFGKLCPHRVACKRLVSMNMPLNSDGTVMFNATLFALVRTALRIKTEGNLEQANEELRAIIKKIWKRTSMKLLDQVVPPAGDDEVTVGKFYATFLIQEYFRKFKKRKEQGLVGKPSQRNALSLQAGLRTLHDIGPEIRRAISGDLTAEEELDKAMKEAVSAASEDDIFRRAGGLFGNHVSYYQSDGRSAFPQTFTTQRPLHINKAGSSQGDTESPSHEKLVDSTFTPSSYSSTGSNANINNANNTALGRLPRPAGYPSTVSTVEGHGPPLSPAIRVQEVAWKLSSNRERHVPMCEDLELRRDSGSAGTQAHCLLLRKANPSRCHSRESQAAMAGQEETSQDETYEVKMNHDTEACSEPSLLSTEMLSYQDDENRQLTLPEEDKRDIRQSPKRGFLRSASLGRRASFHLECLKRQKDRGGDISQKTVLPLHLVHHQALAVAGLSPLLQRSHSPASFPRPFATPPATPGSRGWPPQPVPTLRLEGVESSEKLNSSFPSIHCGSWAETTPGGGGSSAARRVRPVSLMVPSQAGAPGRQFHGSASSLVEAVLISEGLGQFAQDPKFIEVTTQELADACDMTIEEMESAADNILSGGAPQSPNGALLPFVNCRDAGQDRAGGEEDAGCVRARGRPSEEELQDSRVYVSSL
T2 sequence (Q08289 whole entry partner): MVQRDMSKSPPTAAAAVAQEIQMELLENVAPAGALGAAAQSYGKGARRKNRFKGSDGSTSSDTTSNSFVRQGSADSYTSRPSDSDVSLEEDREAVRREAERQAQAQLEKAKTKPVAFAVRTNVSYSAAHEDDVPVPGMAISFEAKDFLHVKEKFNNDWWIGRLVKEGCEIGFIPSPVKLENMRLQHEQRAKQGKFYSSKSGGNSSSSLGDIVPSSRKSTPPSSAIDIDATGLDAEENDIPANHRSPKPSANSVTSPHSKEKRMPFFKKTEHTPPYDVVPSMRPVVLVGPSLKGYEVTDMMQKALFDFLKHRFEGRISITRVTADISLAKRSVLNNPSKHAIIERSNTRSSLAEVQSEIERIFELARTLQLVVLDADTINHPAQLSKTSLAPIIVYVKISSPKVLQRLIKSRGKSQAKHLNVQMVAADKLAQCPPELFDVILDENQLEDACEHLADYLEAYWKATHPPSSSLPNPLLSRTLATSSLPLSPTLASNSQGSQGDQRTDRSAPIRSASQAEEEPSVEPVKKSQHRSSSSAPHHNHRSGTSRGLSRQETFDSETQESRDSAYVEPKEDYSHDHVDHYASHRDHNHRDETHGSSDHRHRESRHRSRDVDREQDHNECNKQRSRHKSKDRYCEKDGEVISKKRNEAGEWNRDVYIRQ

As usually defined, the fraction unbound is free concentration divided by total concentration. For `CC(C)[C@@H](NC(=O)[C@@H]1CCC(F)(F)C1)C(=O)N1CC[C@](O)(c2ccc(Cl)cc2)[C@@](C)(O)C1` [Compound I, (R)—N—((R)-1-((3S,4S)-4-(4-chlorophenyl)-3,4-dihydroxy-3-methylpiperidin-1-yl)-3-methyl-1-oxobutan-2-yl)-3,3-difluorocyclopentanecarboxamide], the inhibition at 10 µM in series [1] is 21%. The “Ca channel, % inh” value in series [2] was 29% @ 30 μM. In addition, the “Human Liver Microsomal Metabolism % remaining (Assay Conditions B)” value in series [3] (3 μM compound, 10 minutes, 37° C.) is listed as 96% (B). In addition, in series [3] (assay conditions not given), the “% of compound remaining in the human liver microsome metabolism assay” value is listed as 100%. Also, the fraction unbound in “Protein binding, rabbit” was 0.46. The “Cmax: Free drug (at NOEL dose)” value in series [4] (at NOEL dose, free drug) amounted to 52 µM. Further, the “Cmax: Free drug (at QT effect dose)” value in series [4] (at QT effect dose, free drug) stood at 52 µM. The compound also gave an NOEL dose in series [4] (i.v. infusion) of 30 mg/kg. For the same compound, the “QT effect Dose” value in series [4] (i.v. infusion 3, 10, 30 mg/kg) is > 30 mg/kg. Besides, the “QTcf, delta” value in series [4] (i.v. infusion, change from pre-drug baseline) is “No effect”. The compound also had a Cmax in series [4] (male, blood, iv, at QT effect dose, total drug) of 96 µM.
